From patent publication US6410590B1, “Compounds having antitumor activity: process for their preparation and pharmaceutical compositions containing them” (Dr. Reddy's Research Foundation, priority 2000, dated 2002)
Where two headings read alike, the source gives them in different places.

How the values were obtained:
[1] = Plasma triglyceride and body weight reduction in Swiss albino mice; format: in vivo; conditions: for Percentage reduction TG: plasma triglyceride
Procedure: (b) Plasma triglyceride and body weight reduction in Swiss albino mice Male Swiss albino mice (SAM) were obtained from NIN and housed in DRF animal house. All these animals were maintained under 12 hour light and dark cycle at 25±1° C. Animals were given standard laboratory chow (NIN, Hyderabad, India) and water, ad libitum. SAM of 20-25 g body weight range (Oliver, P., Plancke, M. O., Marzin, D., Clavey, V., Sauzieres, J and Fruchart, J. C. Effects of fenofibrate, gemfibrozil and nicotinic acid on plasma lipoprotein levels in normal and hyperlipidemic mice. Atherosclerosis. 1988. 70: 107-114).
The test compounds were administered orally to Swiss albino mice at 0.3 to 500 mg/kg dose for 6 days. Control mice were treated with vehicle (Chremophore/DMSO/H2O; dose 10 ml/kg).
The blood samples were collected in fed state 1 hour after drug administration on 0 and 6 day of treatment. The blood was collected from the retro-orbital sinus through heparinised capillary in EDTA containing tubes. After centrifugation, plasma sample was separated for triglyceride (Wieland, O. Methods of Enzymatic analysis. Bergermeyer, H. O., Ed., 1963. 211-214; Trinder, P. Ann. Clin. Biochem. 1969. 6: 24-27). Measurement of plasma triglyceride was done using commercial kits (Dr. Reddy's Diagnostic Division, Hyderabad, India).
The formula used to measure percent reduction in blood sugar/triglycerides is given above.

[2] = test system: HIV-1/MN; experiment: Anti HIV activity, P24 antigen in infected PM-1 cells; format: cell-based; conditions: 96 h; for inhibition at 1 µM: Human immunodeficiency virus 1, PM1, 1 μM, read-out: Percent Inhibition
Procedure: Human CD4+ T cell line PM-1 used in the assay was cultured in RPMI-1640 medium containing 10% Fetal bovine serum, 2 g/L sodium bicarbonate, 100,000 units/L Pencillin-G and 100 mg/L streptomycin. Healthy PM-1 cells were plated on the first day in a 96 well plate at […]. After 24 h HIV-1/MN was added to the culture and incubated for 2 h for infection. Cells were washed twice with PBS to remove the virus in the culture. Different concentrations of DRF compounds ranging from 10^−4 to 10^−8 M were added to the culture and incubated for 96 h. The viability of cells was then assessed by standard MTT assay and the viral antigen P24 levels were estimated by ELSA method. Based on the MTT assay values the P 24 antigen values were corrected.
All the samples were tested in triplicates and the average was used for calculations. AZT was used as standard compound for comparison.

[3] = test system: Human lymphocytes; experiment: Lymphocyte proliferation, tritiated thymidine incorporation; format: cell-based; conditions: 1 μM; PHA-stimulated human lymphocytes
Procedure: Human lymphocycles were isolated from whole blood by using Ficoll Hypaque Plus (Amersham). On day one, 1 million lymphocytes were seeded into each well of 96 well plate in 100 μL volume of RPMI 1640 medium containing 10% FCS and Phytohemagglutitin A at 10 μg/ml concentration. Plates were incubated at 37° C. in CO2 incubator for 24 h. Test compounds at various concentrations were added to test wells and only medium with vehicle was added to control wells. After 48 h of incubation […] of tritiated thymidine was added to each well. After 24 h of thymidine addition the cells were harvested and the incorporated radioactivity was determined.
Stimulation index (si) was calculated using the formula, […]

[4] = test system: MCF-7/ADR; experiment: Sulforhodamine B growth inhibition, breast panel; format: cell-based, human; conditions: 48 h, SRB, read-out: GROWTH INHIBITION (GI 50)
Procedure: (§1) Each test compound was screened against a battery of cell lines representing eight different types of cancer. In a typical procedure 1×10^4 cells were seeded into each well of 96-well plates in 100 μL volume of RPMI-1640 containing antibiotics and 10% FCS.
(§2) The plates were incubated at 37° C. in presence of CO2. After 24 h, test compounds were evaluated at five 10 fold dilutions ranging from 100 to 0.01 μM. To each test well 100 μL of test compound solution was added and medium with vehicle was added to control wells and the plates were further incubated. After 48 h of incubation, plates were terminated by Sulforhodamine B method.
(§3) The optical density which is proportional to protein mass, is then read by automated spectrophotometric plate readers at a wavelength of 515 nm.

[5] = test system: M14; experiment: Sulforhodamine B growth inhibition, melanoma panel; format: cell-based, human; conditions: 48 h, SRB, read-out: GROWTH INHIBITION (GI 50)
Procedure: as §1, §2, §3

[6] = test system: H522; experiment: Sulforhodamine B growth inhibition, lung panel; format: cell-based, human; conditions: SRB, read-out: GROWTH INHIBITION (GI 50)
Procedure: as §1, §2, §3

[7] = test system: DU145; experiment: Sulforhodamine B growth inhibition, prostate panel; format: cell-based, human; conditions: SRB, read-out: GROWTH INHIBITION (GI 50)
Procedure: as §1, §2, §3

[8] = test system: SW-620; experiment: Sulforhodamine B growth inhibition, colon panel; format: cell-based, human; conditions: SW-620, colon, 48 h, SRB, read-out: GROWTH INHIBITION (GI 50)
Procedure: as §1, §2, §3

[9] = test system: A498; experiment: Sulforhodamine B growth inhibition, renal panel; format: cell-based, human; conditions: 48 h, SRB, read-out: GROWTH INHIBITION (GI 50)
Procedure: as §1, §2, §3

[10] = test system: U251; experiment: Sulforhodamine B growth inhibition, CNS panel; format: cell-based, human; conditions: SRB, read-out: GROWTH INHIBITION (GI 50)
Procedure: as §1, §2, §3

[11] = test system: SKOV-3; experiment: Sulforhodamine B growth inhibition, ovarian panel; format: cell-based, human; conditions: SKOV-3, ovarian, 48 h, SRB, read-out: GROWTH INHIBITION (GI 50)
Procedure: as §1, §2, §3

[12] = test system: tumor cell lines; conditions: cited from earlier work
[13] = test system: HIV-1(IIIB); conditions: cited from earlier work
[14] = test system: UACC62; experiment: Sulforhodamine B growth inhibition, melanoma panel; format: cell-based; conditions: Homo sapiens, UACC-62, 48 h, SRB, read-out: GROWTH INHIBITION (GI 50)
Procedure: as §1, §2, §3

[15] = test system: P388 lymphocytic leukemia; conditions: cited from earlier work
[16] = test system: KB; conditions: cited from earlier work

Row | Compound | GI50 ([4]; Homo sapiens, NCI/ADR-RES) | GI50 ([5]; Homo sapiens) | GI50 ([6]; Homo sapiens, NCI-H522, 48 h) | GI50 ([7]; Homo sapiens, DU-145, 48 h) | GI50 ([8]; Homo sapiens) | GI50 ([9]; Homo sapiens) | GI50 ([10]; Homo sapiens, U-251, 48 h) | GI50 ([11]; Homo sapiens, SK-OV-3) | other results
1 | C[C@]12CC[C@@H](O)[C@@](C)(CO)C1CC[C@]1(CO1)C2C/C=C1/C(=O)OC[C@H]1OC(=O)/C=C/c1ccccc1 (stereo partly drawn) [Example-7, 14-CINNAMOYL 3,19-DIHYDROXY 8,17-EPOXY ANDROGRAPHOLIDE] | 2000 nM | 1000 nM | 6000 nM | 5500 nM | 500 nM | 9000 nM | 6000 nM | 4000 nM | Percentage reduction Body weight ([1]; 100 mg/kg orally for 6 days): 29%; Percentage reduction TG ([1]; 100 mg/kg orally for 6 days): 42%; Percentage reduction Body weight ([1]; 250 mg/kg orally for 6 days): 13%; Percentage reduction TG ([1]; 250 mg/kg orally for 6 days): 52%; Percentage reduction TG ([1]; 500 mg/kg orally for 6 days): 62%; inhibition at 1 µM [2]: 68.4%; Stimulation Index (SI) [3]: 25
2 | CCC(=O)OC[C@@]1(C)C2CC[C@]3(CO3)C(C/C=C3/C(=O)OC[C@H]3OC(=O)/C=C/c3ccc(OC)c(OC)c3)[C@@]2(C)CC[C@H]1OC(=O)CC (stereo partly drawn) [Example-10, 8,17-EPOXY 14-[3′,4′-DIMETHOXYCINNAMOYL]3,19-DIPROPIONYL ANDROGRAPHOLIDE] | 1500 nM | 800 nM | 7500 nM | 2500 nM | 400 nM | 3500 nM | 2000 nM | 2500 nM | 
3 | CCC(=O)OC[C@]1(C)C(OC(=O)CC)CC[C@]2(C)C(C/C=C3/C(=O)OCC3OC(=O)/C=C/c3ccc(OC)cc3)[C@]3(CCC12)CO3 (stereo partly drawn) [Example-9, 14-[4′-METHOXYCINNAMOYL]3,19-DIPROPIONYL 8,17-EPOXY ANDROGRAPHOLIDE] | 3000 nM | 750 nM | 4800 nM | 2000 nM | 600 nM | 3000 nM | 3000 nM | 2000 nM | 
4 | C=C1CC[C@@H]2[C@](C)(CO[C@@H]3O[C@H](CO)[C@@H](O)[C@H](O)[C@H]3O)CCC[C@@]2(C)[C@@H]1CCC1=CCOC1=O [neoandrographolide] |  |  |  |  |  |  |  |  | cytotoxic activity in tumor cell lines [12]: no cytotoxic activity
5 | Dehydroandrographolide Succinic acid monoester [DASM] |  |  |  |  |  |  |  |  | minimal concentration inhibitory to HIV-1(IIIB) [13]: 1.6 to 3.1 µg/mL
6 | C[C@]12CC[C@@H](OC(=O)CCl)[C@@](C)(COC(=O)CCl)C1CC[C@]1(CO1)C2C/C=C1/C(=O)OC[C@H]1OC(=O)CCl (stereo partly drawn) [Example-4, 3,14,19-TRIS CHLORO ACETYL 8,17-EPOXY ANDROGRAPHOLIDE] | 800 nM |  | 5500 nM | 4500 nM | 25000 nM | 15000 nM | 800 nM | 450 nM | GI50 [14]: 550 nM
7 | CCC(=O)OC[C@@]1(C)C2CC[C@]3(CO3)C(C/C=C3/C(=O)OC[C@H]3OC(=O)CNC(=O)OC(C)(C)C)[C@@]2(C)CC[C@H]1OC(=O)CC (stereo partly drawn) [Example-13, 14-[N-BOC GLYCINYL]3,19-DIPROPIONYL 8,17-EPOXY ANDROGRAPHOLIDE] |  |  |  |  |  |  |  |  | Percentage reduction TG ([1]; 250 mg/kg orally for 6 days): 31%; inhibition at 1 µM [2]: 73.9%; Stimulation Index (SI) [3]: 24
8 | CCC(=O)OC[C@@]1(C)C2CC[C@]3(CO3)C(C/C=C3/C(=O)OC[C@H]3OC(=O)/C=C/c3ccccc3)[C@@]2(C)CC[C@H]1OC(=O)CC (stereo partly drawn) [Example-8, 14-CINNAMOYL 3,19-DIPROPIONYL 8,17-EPOXY ANDROGRAPHOLIDE] | 80 nM | 2500 nM | 20000 nM | 4000 nM | 2500 nM | 3000 nM | 6000 nM | 10000 nM | 
9 | C=C1CC[C@@H]2[C@](C)(CO)[C@H](O)CC[C@@]2(C)[C@@H]1C/C=C1/C(=O)OC[C@H]1O [Andrographolide] |  |  |  |  |  |  |  |  | cytotoxic activity against P388 [15]: potent cytotoxic activity; cytotoxic activity against KB [16]: potent cytotoxic activity
10 | C=C1CCC2[C@](C)(CC[C@@H](O)[C@@]2(C)CO)C1/C=C/C1=CCOC1=O (stereo partly drawn) [14-deoxy-11,12-didehydroandrographolide] |  |  |  |  |  |  |  |  | cytotoxic activity in tumor cell lines [12]: no cytotoxic activity
11 | 3,14,19-TRIACETYL 8,17-EPOXY ANDROGRAPHOLIDE [Example-2] |  |  |  |  |  |  |  |  | Percentage reduction TG ([1]; 250 mg/kg orally for 6 days): 19%; Percent Inhibition ([2]; 0.1 μM): 75.31%; Percent Inhibition ([2]; 1 μM): 77.25%; Stimulation Index (SI) [3]: 32; GI50 [4]: 5500 nM; GI50 [5]: 7500 nM; GI50 ([6]; 48 h): 20000 nM; GI50 ([7]; 48 h): 20000 nM; GI50 [8]: 1000 nM; GI50 [9]: 100 nM; GI50 ([10]; 48 h): 3000 nM; GI50 [11]: 4000 nM
12 | CC1(C)OC[C@@]2(C)C3CCC4(CO4)C(C/C=C4/C(=O)OC[C@H]4O)[C@@]3(C)CC[C@H]2O1 (stereo partly drawn) [Example 5, 8,17-EPOXY ANDROGRAPHOLIDE 3,19-ACETONIDE] |  |  |  |  |  |  |  |  | melting point: 179 °C
13 | CCC(=O)OC[C@@]1(C)C2CC[C@]3(CO3)C(C/C=C3/C(=O)OC[C@H]3OC(=O)/C=C/c3ccc4c(c3)OCO4)[C@@]2(C)CC[C@H]1OC(=O)CC (stereo partly drawn) [Example 11, 14-[3′,4′-METHYLENEDIOXYCINNAMOYL]3,19-DIPROPIONYL 8,17-EPOXY ANDROGRAPHOLIDE] |  |  |  |  |  |  |  |  | melting point: 76.7 °C
